The numbers were not newly measured in patent US20090318371A1 (priority 2006, published 2009), which cites them from elsewhere.

For data set [1] the following is noted: clinical studies.
Data set [2] has as its system human polymorphonuclear leukocyte chemotactic and chemokinetic responses. Conditions: in vivo and in vitro.
The conditions of data set [3]: topical administration.
The conditions of data set [4]: Ames test. (In the Ames test, an excess of revertant colonies over the control signals mutagenicity.)
For data set [5] the following is noted: Phase III clinical studies.
For data set [6] the following is noted: Ames, chromosomal aberration and micronuclei.
The conditions of data set [7]: topical application to mice for 21 months.
The conditions of data set [8]: clinical phase I.
The conditions of data set [9]: during the following 10 hours of topical administration.
For data set [10] the following is noted: multiple topical administrations, equivalent to 10 mg/ml in water and isopropyl alcohol solution.

As for `COc1ccc(-c2ccc3cc(C(=O)O)ccc3c2)cc1C12CC3CC(CC(C3)C1)C2` [Adapalene], in [1], the Plasma levels result was “no significant plasma levels were detected”. The “Anti-inflammatory activity compared to other topical retinoids” value in data set [2] is given as “superior to other topical retinoids”. The “Presence of Adapalene compared to Tretinoin on the dermis” value in data set [3] (dermis) was −37%. In addition, the “Presence of Adapalene compared to Tretinoin on the epidermis” value in data set [3] (epidermis) is reported as “+51%”. In addition, the “Presence of Adapalene compared to Tretinoin in receptor fluid” value in data set [3] (receptor fluid) is −71%.
With `O=C(OOC(=O)c1ccccc1)c1ccccc1` [Benzoyl peroxide], the “Activity against Propionibacterium acnes” value in the data set on Propionibacterium acnes is on record as “effective against Propionibacterium acnes”. Moreover, the Mutagenicity result in data set [4] is “not mutagenic”.
On to `CCC[C@@H]1C[C@@H](C(=O)N[C@@H]([C@H]2O[C@H](SC)[C@H](O)[C@@H](O)[C@H]2O)[C@H](C)Cl)N(C)C1` [Clindamycin], for which, under “in vivo”, the “Binding to plasma proteins” value is given as “Ninety percent or more”. Where the note is “urine”, the “Share of administered clindamycin excreted intact in urine” value is 10%.
Turning to `CCOC(=O)c1ccc(C#Cc2ccc3c(c2)C(C)(C)CCS3)nc1` [Tazarotene], the Adverse effects reported entry in data set [5] was “burning sensation, skin scaling and dryness”. For the same compound, the “Mutagenicity, clastogenic or chromosomal effects” value in data set [6] is “not mutagenic and has no clastogenic or chromosomal effects”. Moreover, in [7], the Carcinogenic effects result was “non-carcinogenic effects”. Further, in data set [8], the “Sensitization, phototoxicity or photoallergicity” value was “does not cause sensitization, phototoxicity or photoallergicity”. Besides, the “Absorption, share of the dose absorbed” value in [9] is reported as “Less than 6.0%”.
For `CCC[C@@H]1C[C@@H](C(=O)N[C@@H]([C@H]2O[C@H](SC)[C@H](OP(=O)(O)O)[C@@H](O)[C@H]2O)[C@H](C)Cl)N(C)C1` [clindamycin phosphate, Clindamycin phosphate], the “Share of the dosage recovered in urine as clindamycin” value in data set [10] is listed as “less than 0.2%”.
